BindingDB's records for patent US20250034168 (Xizang Haisco Pharmaceutical, 2025)

Target: Poly [ADP-ribose] polymerase 1 (Homo sapiens, UniProt P09874)
Assay: PARP-1 Enzyme Activity Assay
Protocol: PARP-1 chemical […] detection kit was purchased from BPS Bioscience. The histone solution in the kit was diluted 5× with 1×PBS, and 25 μL of the diluted histone solution was added to a microwell plate and incubated overnight at 4° C. After the incubation, the plate was washed three times with PBST (0.05% Tween-20). 100 μL of the blocking solution was added to the microwell plate and incubated at 25° C. for 90 minutes. After the incubation, the plate was washed three times with PBST. 2.5 μL of compounds at different concentrations diluted in test buffer and 12.5 μL of substrate mixed solution (1.25 μL 10×PARP test buffer; 1.25 μL 10×PARP test mixed solution; 2.5 μL Activated DNA, 7.5 μL double-distilled water) were added to the microwell plate. […] Streptavidin-HRP was diluted 50× with a blocking solution, and 25 μL of the diluent was added to the microwell plate and incubated at 25° C. for 30 minutes. After the incubation, the plate was washed three times with PBST. ELISA ECL substrate A and substrate B were mixed at a ratio of 1:1 (v/v), 50 μL of the mixture was added to the microwell plate, and the chemiluminescence value was read.

Poly [ADP-ribose] polymerase 1, sequence (P09874 whole entry): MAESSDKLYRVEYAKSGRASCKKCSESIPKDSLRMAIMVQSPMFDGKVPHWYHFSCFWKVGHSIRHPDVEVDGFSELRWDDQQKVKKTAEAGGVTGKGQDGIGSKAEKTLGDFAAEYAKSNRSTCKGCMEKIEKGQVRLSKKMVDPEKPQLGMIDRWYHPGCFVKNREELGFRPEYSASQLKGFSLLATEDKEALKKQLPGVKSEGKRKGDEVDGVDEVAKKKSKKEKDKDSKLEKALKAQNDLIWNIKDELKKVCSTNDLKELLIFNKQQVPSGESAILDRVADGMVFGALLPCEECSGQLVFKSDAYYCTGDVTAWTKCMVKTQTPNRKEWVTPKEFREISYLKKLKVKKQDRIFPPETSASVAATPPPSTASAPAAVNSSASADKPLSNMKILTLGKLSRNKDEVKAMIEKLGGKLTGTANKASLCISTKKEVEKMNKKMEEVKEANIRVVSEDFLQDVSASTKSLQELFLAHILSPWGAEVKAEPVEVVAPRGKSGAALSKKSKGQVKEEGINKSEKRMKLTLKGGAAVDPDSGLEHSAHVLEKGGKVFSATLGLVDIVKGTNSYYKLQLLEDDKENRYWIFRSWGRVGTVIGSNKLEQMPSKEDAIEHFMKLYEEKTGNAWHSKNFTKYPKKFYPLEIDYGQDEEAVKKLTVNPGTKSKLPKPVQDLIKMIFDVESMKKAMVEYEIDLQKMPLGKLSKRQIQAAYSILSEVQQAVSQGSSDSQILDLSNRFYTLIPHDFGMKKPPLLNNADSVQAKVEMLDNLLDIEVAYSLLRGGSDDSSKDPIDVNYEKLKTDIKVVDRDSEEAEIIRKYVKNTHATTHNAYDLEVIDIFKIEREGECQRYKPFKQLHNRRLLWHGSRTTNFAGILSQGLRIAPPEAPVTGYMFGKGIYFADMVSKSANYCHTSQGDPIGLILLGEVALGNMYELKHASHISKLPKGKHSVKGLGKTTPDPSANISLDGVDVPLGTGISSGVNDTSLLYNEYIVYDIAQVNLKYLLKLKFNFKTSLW

- IC50: 2.8 nM
SMILES: CCc1cc2ncc(CN3CCC(Nc4ccc(C(=O)NC)nc4)C3)cc2[nH]c1=O (stereo unspecified) [US20250034168, Compound 7]
